Results reported in patent US9499584B2, “GPCR with improved cell surface expression” (CANVAX BIOTECH S.L, priority 2012, dated 2016).

Legend:
RBL-2H3 = assay: Influence of VGS mutations on surface expression of human HTR1B in RBL-2H3 cells, flow cytometry after magnetic bead separation (Example 4); format: cell-based; details: for Median fluorescence intensity of positive cells, x-median (range) / Percentage of positive cells after selection (range): human HTR1B, MoMLV5′LTR promoter, RBL-2H3, triplicate; for Percentage of positive cells after selection (range): magnetic bead separated
Source text: Vectors were developed for stable expression of human HTR1B without the methionine at position 1 in mammalian cells under the control of Moloney Leukaemia virus 5′-LTR promoter (MoMLV5′LTR, SEQ ID NO: 6). All vectors had the neomycin resistance gene for selection of stable eukaryotic cells and mouse immunoglobulin kappa signal peptide followed by a c-myc tag (EQKLISEEDLN peptide). Vectors included no VGS, native VGS or two VGS mutants (VGS mutant 1 and VGS mutant 2). This experiment was designed to test if serine and threonine at VGS which represent potential […] glycosylation sites are the molecular determinants of improved surface expression. In VGS mutant 1 all 5 serine and threonine were mutated to alanine while in VGS mutant 2 all serine were mutated and 2 threonines were still present.
Each vector was individually electroporated by triplicate using a microporator (Digital Bio Technology, South Korea) into RBL-2H3 and after 48 hours neomycin at 500 ug/mL was added to culture for selection. After selection for about 2 weeks cells were analysed by flow cytometry (Guava Technologies, USA) with anti-cmyc tag antibody (anti-cmyc-FITC, clone 9E10, Sigma-Aldrich, USA) for surface expression. Selected cells were separated by using magnetic beads from Miltenyi and anti-cmyc tag. Results were expressed as percentage of positive cells after subtraction of values from non transfected RBL-2H3 cells incubated with the same anti-cmyc tag antibody. For positive cells median fluorescence intensity (x-median) was taken as a marker of surface receptor density on the surface of positive cells.

WEHI-3B = assay: Surface expression of HT1BR in stably transfected WEHI-3B cells, flow cytometry with anti-cmyc tag antibody (Example 2); format: cell-based, mouse
Source text: (§1) Vectors were developed for stable expression of GPCRs in hematopoietic cells without professional regulated exocytosis under the control of Moloney Leukaemia virus 5′-LTR (MoMLV5′LTR, SEQ ID NO: 6), a good promoter for expression of GPCRs tested previously for more than 20 different GPCRs. The vector had neomycin resistance gene for selection of stable eukaryotic cells, mouse immunoglobulin kappa signal peptide followed by a c-myc tag (EQKLISEEDLN peptide) and the entire HT1BR GPCR without the methionine at position 1. This GPCR is a prototype of a receptor that it is difficult to be expressed into RBL-2H3. Two vectors were developed: one with a heterologous viral-GPCR derived sequence (VGS) and one without VGS. Each vector was individually electroporated using a microporator (Digital Bio Technology, South Korea) into WEHI-3B, a mouse myelomonocytic leukaemia cell line (DSMZ, ACC26) and into BW5147.G.1.4.ovar.1, a mouse lymphoma T cell line (HPA cultures, Cat. No. 88100507) and after 48 hours neomycin was added to culture for selection. After selection for about 2 weeks cells were analysed by flow cytometry (Guava Technologies, USA) with anti-cmyc tag antibody (anti-cmyc-FITC, clone 9E10, Sigma-Aldrich, USA) for surface expression.

BW5147.G.1.4.ovar.1 = assay: Surface expression of HT1BR in stably transfected BW5147 cells, flow cytometry with anti-cmyc tag antibody (Example 2); format: cell-based, mouse; details: MoMLV5′LTR promoter
Source text: as §1

HEK293 cells = assay: Surface expression of human HTR1B in stably transfected HEK293 cells, flow cytometry with anti-cmyc tag antibody (Example 3); format: cell-based; details: HEK293, MoMLV5′LTR promoter
Source text: Vectors were developed for stable expression of GPCRs in mammalian cells under the control of the following promoters: Moloney Leukaemia virus 5′-LTR (MoMLV5′LTR, SEQ ID NO: 6), human phosphoglycerate kinase promoter (SEQ ID NO: 4) and human elongation factor 1 alpha promoter (hEF1alpha, SEQ ID NO: 3). All vectors had the neomycin resistance gene for selection of stable eukaryotic cells, mouse immunoglobulin kappa signal peptide followed by a c-myc tag (EQKLISEEDLN peptide), a sequence derived from a heterologous viral-GPCR (VGS, SEQ ID NO: 2) and the entire human HTR1B without the methionine at position 1. Such heterologous viral-GPCR derived sequence was included to test if surface expression is improved by certain heterologous viral-GPCR derived sequences in non-hematopoietic cell lines. […] After selection for about 2 weeks cells were analysed by flow cytometry (Guava Technologies, USA) with anti-cmyc tag antibody (anti-cmyc-FITC, clone 9E10, Sigma-Aldrich, USA) for surface expression. Results were expressed as percentage of positive cells after subtraction of values from non transfected HEK293 cells incubated with the same anti-cmyc tag antibody. […] For positive cells mean fluorescence intensity (MFI) was taken as a marker of surface receptor density on the surface of positive cells.

With “LAAMAPGAAVGA [VGS mutant 1, all 5 serine and threonine mutated to alanine]” the “Median fluorescence intensity of positive cells, x-median (range)” value (“Median fluorescence intensity … (range)” below) (RBL-2H3) was 45.6 (44.9-46.2) and the “Percentage of positive cells after selection (range)” value (shortened to “Percentage … after selection (range)”) (RBL-2H3) was 49.1 (47.5-50.7) %.
“LAAMAPGATVGT [VGS mutant 2, all serine mutated, 2 threonines still present]” was tested, and the “Reduction of median fluorescence intensity versus native VGS” value (RBL-2H3; RBL-2H3, MoMLV5′LTR promoter) was 1.43 fold and the “Percentage … after selection (range)” value (RBL-2H3) was 49.2 (48.2-50.2) %.
For LSTMAPGSTVGT [VGS native], the “Increase of median fluorescence intensity of positive cells versus no VGS” value (RBL-2H3; RBL-2H3, MoMLV5′LTR promoter) was 2.6 fold, the “Median fluorescence intensity … (range)” value (RBL-2H3) was 89.3 (87.7-90.9) and the “Percentage … after selection (range)” value (RBL-2H3) was 50.2 (49.2-51.1) %. The “Percentage … after selection (range)” value (RBL-2H3; listed as native VGS) was 50% and the “Median fluorescence intensity … (range)” value (RBL-2H3; listed as native VGS) was 89.3.
With “VGS: Heterologous viral-GPCR derived sequence (VGS, SEQ ID NO: 2) added at the amino terminus of the GPCR (CTGAGCACAATGGCCCCAGGCTCCACCGTGGGAACA; expressed or natural sequence)” the “Percentage of positive cells after selection” value (WEHI-3B; HT1BR, WEHI 3B cells, about 2 weeks neomycin selection) was “about 50%”, the “Ratio of percentage of positive cells with VGS versus without” value (WEHI-3B; WEHI-3B cells, MoMLV5′LTR promoter) was 1.6 times and the “Ratio of percentage of cells with surface expression with VGS versus without” value (BW5147.G.1.4.ovar.1) was “about 15 times”. For the same substance, the “Improvement of percentage of positive cells by inclusion of VGS” value (HEK293 cells) was 2.7 fold.
